Values belong to the compound of their own block, whether it stands above or below them. Calls of active or inactive are those of the source.
What was measured:
[1] = target: T1, Histone-lysine N-methyltransferase NSD2 (Homo sapiens, UniProt O96028); format: biochemical
T1 sequence (O96028 whole entry): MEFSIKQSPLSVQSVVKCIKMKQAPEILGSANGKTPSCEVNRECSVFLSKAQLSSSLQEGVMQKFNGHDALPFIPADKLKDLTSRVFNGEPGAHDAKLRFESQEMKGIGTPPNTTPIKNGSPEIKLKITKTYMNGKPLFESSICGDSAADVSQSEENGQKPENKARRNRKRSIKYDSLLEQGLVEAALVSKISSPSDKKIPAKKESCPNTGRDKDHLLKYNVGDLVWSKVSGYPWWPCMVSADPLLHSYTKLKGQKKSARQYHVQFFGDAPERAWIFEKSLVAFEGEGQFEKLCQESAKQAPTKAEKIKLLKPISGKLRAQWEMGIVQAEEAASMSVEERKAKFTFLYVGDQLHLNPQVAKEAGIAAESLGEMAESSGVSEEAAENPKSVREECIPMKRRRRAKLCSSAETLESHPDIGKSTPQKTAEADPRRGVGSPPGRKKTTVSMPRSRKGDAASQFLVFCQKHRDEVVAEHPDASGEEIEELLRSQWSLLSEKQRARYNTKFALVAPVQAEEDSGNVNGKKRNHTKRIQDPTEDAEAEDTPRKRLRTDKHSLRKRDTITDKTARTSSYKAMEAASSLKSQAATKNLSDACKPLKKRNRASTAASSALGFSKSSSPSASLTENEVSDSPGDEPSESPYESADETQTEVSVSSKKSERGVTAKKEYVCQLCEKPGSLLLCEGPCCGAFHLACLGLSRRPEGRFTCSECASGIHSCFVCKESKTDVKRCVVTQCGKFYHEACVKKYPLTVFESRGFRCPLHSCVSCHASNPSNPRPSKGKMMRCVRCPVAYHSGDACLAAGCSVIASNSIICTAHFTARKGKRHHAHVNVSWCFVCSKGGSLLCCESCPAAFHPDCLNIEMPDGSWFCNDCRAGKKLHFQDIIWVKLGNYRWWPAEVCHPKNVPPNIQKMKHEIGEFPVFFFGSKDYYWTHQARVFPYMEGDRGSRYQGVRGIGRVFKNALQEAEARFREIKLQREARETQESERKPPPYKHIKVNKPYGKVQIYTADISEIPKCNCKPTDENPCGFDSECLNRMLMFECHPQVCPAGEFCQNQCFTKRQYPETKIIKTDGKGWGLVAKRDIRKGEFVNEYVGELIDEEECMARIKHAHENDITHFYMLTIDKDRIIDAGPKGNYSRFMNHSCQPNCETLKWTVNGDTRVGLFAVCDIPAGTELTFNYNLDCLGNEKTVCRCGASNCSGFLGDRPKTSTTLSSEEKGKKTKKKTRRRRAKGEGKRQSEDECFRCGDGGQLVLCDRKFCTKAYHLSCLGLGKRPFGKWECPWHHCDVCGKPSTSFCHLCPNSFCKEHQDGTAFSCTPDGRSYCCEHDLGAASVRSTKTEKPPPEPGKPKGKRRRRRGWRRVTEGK

[2] = target: T2, Sentrin-specific protease 6 (Homo sapiens, UniProt Q9GZR1); experiment: SAR Analysis of small molecule inhibitors of Sentrin-specific protease 6 (SENP6) using a Luminescent assay. [Related pubchem assays (depositor defined):AID2582, AID2599]; format: functional
T2 sequence (Q9GZR1 whole entry): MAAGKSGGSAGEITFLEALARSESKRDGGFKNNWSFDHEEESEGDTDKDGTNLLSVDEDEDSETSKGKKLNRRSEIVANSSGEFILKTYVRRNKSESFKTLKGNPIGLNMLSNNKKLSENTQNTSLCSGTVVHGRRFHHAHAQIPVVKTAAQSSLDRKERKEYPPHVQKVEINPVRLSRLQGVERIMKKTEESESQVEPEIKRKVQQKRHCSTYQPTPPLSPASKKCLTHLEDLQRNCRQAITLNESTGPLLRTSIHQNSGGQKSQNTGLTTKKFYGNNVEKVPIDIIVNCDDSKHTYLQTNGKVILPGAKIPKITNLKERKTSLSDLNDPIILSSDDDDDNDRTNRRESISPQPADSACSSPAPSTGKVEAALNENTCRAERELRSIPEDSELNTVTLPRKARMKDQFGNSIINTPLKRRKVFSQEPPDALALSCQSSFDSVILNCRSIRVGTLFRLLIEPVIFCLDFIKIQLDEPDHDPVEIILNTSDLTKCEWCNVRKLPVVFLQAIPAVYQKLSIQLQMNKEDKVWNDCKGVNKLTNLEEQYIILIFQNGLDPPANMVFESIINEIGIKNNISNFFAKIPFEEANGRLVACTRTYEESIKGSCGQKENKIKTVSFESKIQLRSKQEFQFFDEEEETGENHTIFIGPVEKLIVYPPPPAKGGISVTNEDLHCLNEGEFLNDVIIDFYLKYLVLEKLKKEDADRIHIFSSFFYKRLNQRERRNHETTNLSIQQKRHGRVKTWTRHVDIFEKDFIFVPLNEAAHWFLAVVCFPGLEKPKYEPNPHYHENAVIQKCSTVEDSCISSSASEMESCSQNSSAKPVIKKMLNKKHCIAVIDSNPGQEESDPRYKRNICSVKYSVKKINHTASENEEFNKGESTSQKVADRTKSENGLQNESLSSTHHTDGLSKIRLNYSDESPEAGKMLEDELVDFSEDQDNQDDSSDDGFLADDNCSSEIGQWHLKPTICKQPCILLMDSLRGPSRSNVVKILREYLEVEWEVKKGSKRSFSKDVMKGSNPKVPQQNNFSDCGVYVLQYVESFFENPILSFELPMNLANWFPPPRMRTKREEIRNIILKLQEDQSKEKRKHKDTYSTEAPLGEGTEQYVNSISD

[3] = target: SUMO-activating enzyme (Homo sapiens, UniProt Q9UBT2); experiment: SUMOylation inhibitor hit validation, confirmation, SUMOylation inhibitor project, biochemical, AlphaScreen (AID 2018); format: functional
[4] = target: Mitogen-activated protein kinase 8 (Homo sapiens, UniProt P45983); format: functional;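 further: value comes from one member of a kinome-wide kinase profiling panel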
[5] = target: Serine/threonine-protein kinase PAK 4 (Homo sapiens, UniProt O96013); format: functional;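 further: value obtained within a kinome profiling panel in which PAK4 was one of the panel members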
[6] = target: cAMP-dependent protein kinase catalytic subunit PRKX (Homo sapiens, UniProt P51817); format: functional
[7] = target: Cyclin-dependent kinase 19 (Homo sapiens, UniProt Q9BWU1); experiment: Navigating the Kinome. Panel member name: CDC2L6; format: functional
Sequence of Cyclin-dependent kinase 19 (Q9BWU1 whole entry): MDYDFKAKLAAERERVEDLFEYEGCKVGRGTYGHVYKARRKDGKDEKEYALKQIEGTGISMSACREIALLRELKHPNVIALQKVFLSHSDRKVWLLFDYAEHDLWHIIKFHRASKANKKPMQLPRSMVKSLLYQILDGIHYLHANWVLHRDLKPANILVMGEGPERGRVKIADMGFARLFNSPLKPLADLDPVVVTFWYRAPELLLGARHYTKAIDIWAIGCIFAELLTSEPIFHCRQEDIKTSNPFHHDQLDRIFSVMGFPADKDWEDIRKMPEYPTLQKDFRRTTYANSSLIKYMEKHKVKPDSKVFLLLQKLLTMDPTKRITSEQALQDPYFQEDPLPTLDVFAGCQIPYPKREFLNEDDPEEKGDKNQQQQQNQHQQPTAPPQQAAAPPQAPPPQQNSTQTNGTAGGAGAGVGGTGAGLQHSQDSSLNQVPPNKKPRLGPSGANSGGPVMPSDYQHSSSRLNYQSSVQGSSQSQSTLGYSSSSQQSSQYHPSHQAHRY

Sequence of SUMO-activating enzyme (Q9UBE0 whole entry): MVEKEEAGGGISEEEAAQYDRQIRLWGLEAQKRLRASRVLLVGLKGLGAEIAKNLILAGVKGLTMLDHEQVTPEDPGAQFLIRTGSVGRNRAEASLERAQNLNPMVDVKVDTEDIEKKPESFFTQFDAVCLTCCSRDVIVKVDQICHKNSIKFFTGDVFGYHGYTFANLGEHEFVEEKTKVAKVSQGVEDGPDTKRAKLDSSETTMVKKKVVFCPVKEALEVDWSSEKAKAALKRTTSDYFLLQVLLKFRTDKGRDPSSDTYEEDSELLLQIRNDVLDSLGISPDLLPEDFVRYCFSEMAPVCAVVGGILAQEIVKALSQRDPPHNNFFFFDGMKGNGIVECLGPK
Sequence of SUMO-activating enzyme (Q9UBT2 whole entry): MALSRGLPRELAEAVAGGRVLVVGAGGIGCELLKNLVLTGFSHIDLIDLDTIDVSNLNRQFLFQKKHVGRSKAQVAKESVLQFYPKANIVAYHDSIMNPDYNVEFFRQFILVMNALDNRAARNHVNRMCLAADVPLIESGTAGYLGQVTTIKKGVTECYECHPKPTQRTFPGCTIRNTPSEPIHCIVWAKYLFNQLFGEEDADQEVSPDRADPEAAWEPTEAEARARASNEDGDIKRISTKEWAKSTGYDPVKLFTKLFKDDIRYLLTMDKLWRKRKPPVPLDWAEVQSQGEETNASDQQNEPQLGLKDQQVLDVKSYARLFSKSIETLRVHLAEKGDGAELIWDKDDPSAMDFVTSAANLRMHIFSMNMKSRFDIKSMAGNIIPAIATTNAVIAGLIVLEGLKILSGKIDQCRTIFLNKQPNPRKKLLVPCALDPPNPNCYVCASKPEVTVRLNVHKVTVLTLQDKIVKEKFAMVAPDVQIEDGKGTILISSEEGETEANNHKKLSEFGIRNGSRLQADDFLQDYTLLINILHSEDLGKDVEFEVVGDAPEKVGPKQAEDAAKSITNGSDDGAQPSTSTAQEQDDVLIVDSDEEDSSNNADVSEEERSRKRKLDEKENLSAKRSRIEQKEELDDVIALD
Sequence of cAMP-dependent protein kinase catalytic subunit PRKX (P51817 whole entry): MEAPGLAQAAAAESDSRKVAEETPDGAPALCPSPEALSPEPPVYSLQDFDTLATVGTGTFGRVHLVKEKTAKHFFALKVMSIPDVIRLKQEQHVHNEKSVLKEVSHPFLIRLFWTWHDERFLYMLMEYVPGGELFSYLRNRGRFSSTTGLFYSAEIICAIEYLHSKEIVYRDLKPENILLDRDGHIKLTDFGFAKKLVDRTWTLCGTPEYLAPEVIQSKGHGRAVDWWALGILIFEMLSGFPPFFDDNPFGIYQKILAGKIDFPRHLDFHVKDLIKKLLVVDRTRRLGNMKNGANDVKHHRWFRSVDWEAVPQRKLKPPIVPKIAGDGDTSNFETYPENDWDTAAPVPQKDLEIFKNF
Sequence of Serine/threonine-protein kinase PAK 4 (O96013 whole entry): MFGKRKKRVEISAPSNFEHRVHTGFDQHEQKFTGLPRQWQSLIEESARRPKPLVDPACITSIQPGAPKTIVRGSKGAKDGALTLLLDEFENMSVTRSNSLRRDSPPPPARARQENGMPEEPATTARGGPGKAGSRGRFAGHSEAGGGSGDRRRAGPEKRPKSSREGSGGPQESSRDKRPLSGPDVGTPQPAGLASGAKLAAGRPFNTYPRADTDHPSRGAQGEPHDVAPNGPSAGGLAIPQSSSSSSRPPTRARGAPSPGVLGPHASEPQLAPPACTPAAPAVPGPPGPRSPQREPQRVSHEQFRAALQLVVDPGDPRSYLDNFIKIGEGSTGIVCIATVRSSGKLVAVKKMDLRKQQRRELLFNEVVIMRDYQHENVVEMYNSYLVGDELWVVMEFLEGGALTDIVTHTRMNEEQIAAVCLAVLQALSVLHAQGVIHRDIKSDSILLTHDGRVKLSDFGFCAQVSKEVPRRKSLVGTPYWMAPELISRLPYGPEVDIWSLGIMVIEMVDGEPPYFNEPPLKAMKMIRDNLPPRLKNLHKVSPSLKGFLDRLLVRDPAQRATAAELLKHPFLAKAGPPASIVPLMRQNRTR
Sequence of Mitogen-activated protein kinase 8 (P45983 whole entry): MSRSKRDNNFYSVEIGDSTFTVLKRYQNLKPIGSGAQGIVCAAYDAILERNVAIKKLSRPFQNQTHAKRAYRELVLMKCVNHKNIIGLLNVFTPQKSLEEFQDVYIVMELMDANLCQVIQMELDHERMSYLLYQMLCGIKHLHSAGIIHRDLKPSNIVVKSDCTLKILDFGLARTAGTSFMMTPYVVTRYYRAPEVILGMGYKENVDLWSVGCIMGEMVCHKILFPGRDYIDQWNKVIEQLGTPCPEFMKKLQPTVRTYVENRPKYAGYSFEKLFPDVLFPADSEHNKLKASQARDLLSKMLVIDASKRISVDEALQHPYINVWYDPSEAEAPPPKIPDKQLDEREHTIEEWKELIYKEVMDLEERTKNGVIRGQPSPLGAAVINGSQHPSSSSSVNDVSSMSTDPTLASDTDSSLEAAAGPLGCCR

SMILES: CCN(CC)CCOc1ccc2c(c1)C(=NNC(=O)c1ccccn1)c1cc(OCCN(CC)CC)ccc1-2
- AC50 [1]: 10.3 µM (active)

- IC50 [2]: 40.4 µM (active)
SMILES: COc1cc2cc(NC(C)=O)cc(NCc3ccccc3)c2cc1OC

SMILES: Oc1nc(Nc2ccc(F)cc2)cc2ccccc12
- IC50 [3]: 1.12 µM (active)

- IC50 [3]: 1.6 µM (active)
- IC50 [2]: 11.3 µM (active)
- AC50 [1]: 4.93 µM (active)
SMILES: CN(C)c1cc(N/N=C\c2ccccc2)nc(N(C)C)n1

- Ki [4]: > 5.01 µM (inactive)
- Ki [5]: > 5.01 µM (inactive)
- Ki [6]: 2 µM (active)
- Ki [7]: > 100 µM (inactive)
SMILES: O=C1Nc2cc(-c3ccc(O)cc3)ccc2C1=Cc1ccc[nH]1

- Ki [4]: 1.26 µM (active)
- Ki [5]: 0.0316 µM (active)
- Ki [6]: 0.0398 µM (active)
SMILES: NC(COc1cncc(-c2ccc3c(c2)C(=Cc2ccc[nH]2)C(=O)N3)c1)Cc1ccccc1 (centres undefined)

- Ki [7]: > 100 µM (inactive)
SMILES: O=C1Cc2cc(-c3ccccc3)cnc2N1
